Patent US9453000B2, “Polycyclic compound” (EISAI R&D MANAGEMENT CO., LTD., priority 2007, dated 2016)
pIC50: −log10 of the molar value.

Each molecule was assayed on Aβ42 production in rat primary neuronal culture (assay: Quantification of Aβ peptide in culture of neurons from rat fetus brain (Aβ ELISA)). Details: Primary cortical neuron, 72 h, rat primary cortical neurons (embryonic day 18 Wistar), three days after addition of the compound, Aβx-42 ELISA of medium, read-out: Aβ42 production reducing effect IC50.
Format: cell-based
Method: Quantification of Aβ Peptide in Culture of Neurons from Rat Fetus Brain
(1) Rat Primary Neuronal Culture
Primary neuronal cultures were prepared from the cerebral cortex of embryonic day 18 Wistar rats (Charles River Japan, Yokohama, Japan). Specifically, the embryos were aseptically removed from pregnant rats under ether anesthesia. The brain was isolated from the embryo and immersed in an ice-cold L-15 medium (Invitrogen Corp. Cat #11415-064, Carlsbad, Calif., USA, or SIGMA L1518, for example). The cerebral cortex was collected from the isolated brain under a stereoscopic microscope. The cerebral cortex fragments collected were enzymatically treated in an enzyme solution containing 0.25% trypsin (Invitrogen Corp. Cat #15050-065, Carlsbad, Calif., USA) and 0.01% DNase (Sigma D5025, St. Louis, Mo., USA) at 37° C. for 30 minutes to disperse the cells. Here, the enzymatic reaction was stopped by adding inactivated horse serum to the solution. The enzymatically treated solution was centrifuged at 1,500 rpm for five minutes to remove the supernatant. 5 to 10 ml of a medium was added to the resulting cell mass. Neurobasal medium (Invitrogen Corp. Cat #21103-049, Carlsbad, Calif., USA) supplemented with 2% B27 supplement (Invitrogen Corp. Cat #17504-044, Carlsbad, Calif., USA), 25 μM 2-mercaptoethanol (2-ME, WAKO Cat #139-06861, Osaka, Japan), 0.5 mM L-glutamine (Invitrogen Corp. Cat #25030-081, Carlsbad, Calif., USA), and Antibiotics-Antimycotics (Invitrogen Corp. Cat #15240-062, Carlsbad, Calif., USA) was used as the medium (Neurobasal/B27/2-ME). However, the above Neurobasal medium not supplemented with 2-ME (Neurobasal/B27) was used for the assay. The cells were redispersed by mild pipetting of the cell mass to which the medium was added. The cell dispersion was filtered through a 40-μm nylon mesh (Cell Strainer, Cat #35-2340, Becton Dickinson Labware, Franklin Lakes, N.J., USA) to remove the remaining cell mass, and thus a neuronal cell suspension was obtained. The neuronal cell suspension was diluted with the medium and then plated in a volume of 100 μl/well at an initial cell density of 5×10^5 cells/cm^2 in a 96-well polystyrene culture plate pre-coated with poly-L or D-lysine (Falcon Cat #35-3075, Becton Dickinson Labware, Franklin Lakes, N.J., USA coated with poly-L-lysine using the method shown below, or BIOCOAT™ cell environments Poly-D-lysine cell ware 96-well plate, Cat #35-6461, Becton Dickinson Labware, Franklin Lakes, N.J., USA). Poly-L-lysine coating was carried out as follows. 100 μg/ml of a poly-L-lysine (SIGMA P2636, St. Louis, Mo., USA) solution was aseptically prepared with a 0.15 M borate buffer (pH 8.5). 100 μl/well of the solution was added to the 96-well polystyrene culture plate and incubated at room temperature for one or more hours or at 4° C. overnight or longer. The coated 96-well polystyrene culture plate was washed with sterile water four or more times, and then dried or rinsed with, for example, sterile PBS or medium, and used for cell plating. The plated cells were cultured in the culture plate at 37° C. in 5% CO2-95% air for one day. Then, the total amount of the medium was replaced with a fresh Neurobasal™/B27/2-ME medium, and then the cells were cultured for further three days.
The drug was added to the culture plate on Day 4 of culture as follows. The total amount of the medium was removed from the wells, and 180 μl/well of Neurobasal medium not containing 2-ME and containing 2% B-27 (Neurobasal/B27) was added thereto. A solution of the test compound in dimethyl sulfoxide (hereinafter abbreviated as DMSO) was diluted with Neurobasal/B27 at 10-fold of the final concentration. 20 μl/well of the dilution was added to and sufficiently mixed with the medium. The final DMSO concentration was 1% or less. Only DMSO was added to the control group.
The cells were cultured for three days after addition of the compound, and the total amount of the medium was collected. […]

SMILES	pIC50
COc1cc(/C=C/c2nc3n(n2)CCCC3(O)c2ccc(C(C)C)cc2)ccc1-n1cnc(C)c1 (single isomer, unassigned) [Example 55, (−)-8-(4-isopropylphenyl)-2-{(E)-2-[3-methoxy-4-(4-methyl-1H-imidazol-1-yl)phenyl]vinyl}-5,6,7,8-tetrahydro[1,2,4]triazolo[1,5-a]pyridin-8-ol]	7.55
COc1cc(/C=C/c2nc3n(n2)CCC[C@]3(O)c2ccccc2F)ccc1-n1cnc(C)c1 (single isomer, unassigned) [Example 59, (−)-8-(2-fluorophenyl)-2-{(E)-2-[3-methoxy-4-(4-methyl-1H-imidazol-1-yl)phenyl]vinyl}-5,6,7,8-tetrahydro-[1,2,4]triazolo[1,5-a]pyridin-8-ol]	7.35
COc1cc(/C=C/c2nc3n(n2)CCCC3C2CCCN2Cc2ccccc2)ccc1-n1cnc(C)c1 (single isomer, unassigned) [Example 133, 8-(1-benzylpyrrolidin-2-yl)-2-{(E)-2-[3-methoxy-4-(4-methyl-1H-imidazol-1-yl)phenyl]vinyl}-5,6,7,8-tetrahydro[1,2,4]triazolo[1,5-a]pyridine]	7.19
COc1nc(/C=C/c2nc3n(n2)CCCC3c2cc(F)c(F)c(F)c2)ccc1-n1cnc(C)c1 (single isomer, unassigned) [Example 169, (−)-2-{(E)-2-[6-methoxy-5-(4-methyl-1H-imidazol-1-yl)pyridin-2-yl]vinyl}-8-(3,4,5-trifluorophenyl)-5,6,7,8-tetrahydro-[1,2,4]triazolo[1,5-a]pyridine]	7.66
COc1nc(/C=C/c2nc3n(n2)CCC[C@H]3c2ccc(F)c(F)c2)ccc1-n1cnc(C)c1 (single isomer, unassigned) [Example 171, (−)-8-(3,4-difluorophenyl)-2-{(E)-2-[6-methoxy-5-(4-methyl-1H-imidazol-1-yl)pyridin-2-yl]vinyl}-5,6,7,8-tetrahydro-[1,2,4]triazolo[1,5-a]pyridine]	7.77
COc1nc(/C=C/c2nc3n(n2)CCC[C@H]3c2ccc(F)cc2)ccc1-n1cnc(C)c1 (single isomer, unassigned) [Example 173, (−)-8-(4-fluorophenyl)-2-{(E)-2-[6-methoxy-5-(4-methyl-1H-imidazol-1-yl)pyridin-2-yl]vinyl}-5,6,7,8-tetrahydro-[1,2,4]triazolo[1,5-a]pyridine]	7.43
COc1nc(/C=C/c2nc3n(n2)CCCC3c2cccc(F)c2)ccc1-n1cnc(C)c1 (single isomer, unassigned) [Example 189, (−)-8-(3-fluorophenyl)-2-{(E)-2-[6-methoxy-5-(4-methyl-1H-imidazol-1-yl)pyridin-2-yl]vinyl}-5,6,7,8-tetrahydro[1,2,4]triazolo[1,5-a]pyridine]	7.37
COc1nc(/C=C/c2nc3n(n2)CCCC3c2cccc3ccccc23)ccc1-n1cnc(C)c1 (single isomer, unassigned) [Example 199, (+)-2-{(E)-2-[6-methoxy-5-(4-methyl-1H-imidazol-1-yl)pyridin-2-yl]vinyl}-8-(naphthalen-1-yl)-5,6,7,8-tetrahydro-[1,2,4]triazolo[1,5-a]pyridine]	7.64
COc1cc(/C=C/c2nc3n(n2)CCC[C@H]3c2ccc(F)cc2)cnc1-n1cnc(C)c1 (single isomer, unassigned) [Example 212, (−)-8-(4-fluorophenyl)-2-{(E)-2-[5-methoxy-6-(4-methyl-1H-imidazol-1-yl)pyridin-3-yl]vinyl}-5,6,7,8-tetrahydro-[1,2,4]triazolo[1,5-a]pyridine]	7.00
COc1cc(/C=C/c2nc3n(n2)CCC[C@H]3c2ccc(F)c(F)c2)cnc1-n1cnc(C)c1 (single isomer, unassigned) [Example 218, (−)-8-(3,4-difluorophenyl)-2-{(E)-2-[5-methoxy-6-(4-methyl-1H-imidazol-1-yl)pyridin-3-yl]vinyl}-5,6,7,8-tetrahydro-[1,2,4]triazolo[1,5-a]pyridine]	7.16
COc1cc(/C=C/c2nc3n(n2)CCCC3c2ccccc2C(F)(F)F)ccc1-n1cnc(C)c1 (single isomer, unassigned) [Example 311, (−)-2-{(E)-2-[3-methoxy-4-(4-methyl-1H-imidazol-1-yl)phenyl]vinyl}-8-(2-trifluoromethylphenyl)-5,6,7,8-tetrahydro-[1,2,4]triazolo[1,5-a]pyridine]	7.96
COc1cc(/C=C/c2nc3n(n2)CC[C@H]3c2ccccc2C(F)(F)F)ccc1-n1cnc(C)c1 (single isomer, unassigned) [Example 317, (−)-2-{(E)-2-[3-methoxy-4-(4-methyl-1H-imidazol-1-yl)phenyl]vinyl}-7-(2-trifluoromethylphenyl)-6,7-dihydro-5H-pyrrolo[1,2-b][1,2,4]triazole]	7.60
COc1nc(/C=C/c2nc3n(n2)CCC[C@@H]3c2ccccc2C)ccc1-n1cnc(C)c1 (single isomer, unassigned) [Example 319, (−)-2-{(E)-2-[6-methoxy-5-(4-methyl-1H-imidazol-1-yl)pyridin-2-yl]vinyl}-8-(o-tolyl)-5,6,7,8-tetrahydro[1,2,4]triazolo[1,5-a]pyridine]	7.82
COc1nc(/C=C/c2nc3n(n2)CCC[C@@H]3c2cccc(C(F)(F)F)c2)ccc1-n1cnc(C)c1 (single isomer, unassigned) [Example 321, (−)-2-{(E)-2-[6-methoxy-5-(4-methyl-1H-imidazol-1-yl)pyridin-2-yl]vinyl}-8-(3-trifluoromethylphenyl)-5,6,7,8-tetrahydro[1,2,4]triazolo[1,5-a]pyridine]	7.64
COc1nc(/C=C/c2nc3n(n2)CCCC3c2cc(F)ccc2C(F)(F)F)ccc1-n1cnc(C)c1 (single isomer, unassigned) [Example 329, (−)-8-(5-fluoro-2-trifluoromethylphenyl)-2-{(E)-2-[6-methoxy-5-(4-methyl-1H-imidazol-1-yl)pyridin-2-yl]vinyl}-5,6,7,8-tetrahydro-[1,2,4]triazolo[1,5-a]pyridine]	7.77
COc1nc(/C=C/c2nc3n(n2)CCCC3c2c(F)cccc2C(F)(F)F)ccc1-n1cnc(C)c1 (single isomer, unassigned) [Example 331, (−)-8-(6-fluoro-2-trifluoromethylphenyl)-2-{(E)-2-[6-methoxy-5-(4-methyl-1H-imidazol-1-yl)pyridin-2-yl]vinyl}-5,6,7,8-tetrahydro-[1,2,4]triazolo[1,5-a]pyridine]	7.66
COc1nc(/C=C/c2nc3n(n2)CCC[C@@H]3c2cccc(F)c2C)ccc1-n1cnc(C)c1 (single isomer, unassigned) [Example 333, (−)-8-(3-fluoro-2-methylphenyl)-2-{(E)-2-[6-methoxy-5-(4-methyl-1H-imidazol-1-yl)pyridin-2-yl]vinyl}-5,6,7,8-tetrahydro-[1,2,4]triazolo[1,5-a]pyridine]	8.00
Cc1cn(-c2ccc(/C=C/c3nc4n(n3)CCC[C@@H]4c3ccccc3C(F)(F)F)nc2OCC(F)F)cn1 (single isomer, unassigned) [Example 354, (−)-2-{(E)-2-[5-(4-methyl-1H-imidazol-1-yl)-6-(2,2-difluoroethoxy)pyridin-2-yl]vinyl}-8-(2-trifluoromethylphenyl)-5,6,7,8-tetrahydro-[1,2,4]triazolo[1,5-a]pyridine]	7.43
